We go through twelve molecules from patent US10836743B2, “Fluorinated cyclopropylamine compound, preparation method therefor, pharmaceutical composition thereof, and uses thereof” (SHANGHAI INSTITUTE OF MATERIA MEDICA, CHINESE ACADEMY OF …, priority 2016, dated 2020).

For series [1], the system named is leukemia cells MV4-11. Kind of series: Inhibitory activity on growth by MTS method. As to conditions: Homo sapiens. The class given is cell-based. How it is done:
2. Test of Inhibitory Activities of Compound on Growth by MTS Method Experimental Principle:
MTS assay detects the inhibitory effect of the tested compound to the growth of leukemia cells MV (4:11). The principle is that succinate dehydrogenase in mitochondria in living cells can reduce exogenous thiazole blue to insoluble blue crystal Formazan.
• 1. MV4-11 cells in logarithmic growth phase were accurately counted at 16000 cells/mL, and the diluted cell solution was added to 96-well plates at 90 μL per well. • 2. Fresh medium was taken and sequentially added to a 96-well plate with cell fluid at 90 μL per well. • 3. […] 2 μL of the diluted compound was respectively added to a 96-well plate containing 98 μL of blank medium, and for DMSO group, 98 μL of blank medium was added into 2 μL of DMSO, and mixed for further use. • 5. The compound mixed with the medium was separately added to a 96-well plate in which cells were plated, in triplicate, 20 μL per well, and were mixed. The blank group was added with 200 μL of IMDM medium, and the DMSO group was added with 180 μL of the cell-containing medium in DMSO diluted with the medium. • 6. […]
For orientation: Formazan colour is commonly taken as a measure of viable cells.

Series [2] concerns human acute myeloid leukemia MV4-11 subcutaneous transplantation tumor. Nature of the series: Growth of subcutaneous transplantation tumor in nude mice. It counts as in vivo, Balb/c nude mice. As to conditions: 21 days. An excerpt:
Example 3 Evaluation of Chronic Efficacy at the Animal Level:
Inhibitory Effect of LSD1 Inhibitor on the Growth of Subcutaneous Transplantation Tumor in Nude Mice of Human Acute Myeloid Leukemia MV4-11 […]
Animals: Balb/c nude mice, female, weighing 17-20 g, were purchased from Beijing Weitong Lihua Experimental Animal Technology Co., Ltd., and the number of animals per group was 5.
Cell line: MV4-11 cell line was used to inoculate at the right axilla of the nude mice, and the inoculation amount was 5×10^6/animal. The experiment can start after the transplanted tumor was formed.
For female nude mice weighing 20±3 g, MV4-11 cells were inoculated into the right axilla of nude mice at a inoculation amount of 5×10^6/mouse. After tumor formation, the diameter of the transplanted tumor was measured with a vernier caliper. And after the tumor has grown into 100-300 mm^3, the animals were divided into model control group and drug-administered group according to body weight and tumor volume, with 5 mouse in each group. The model control group was given an equal amount of blank solvent. Oral gavage was used daily after grouping for 21 days.
Note: Wc: tumor weight of control group, WT: tumor weight of treatment group.
Data processing: Data were expressed as mean±standard deviation, and statistical methods were T-TEST two-tailed analysis for significant analysis.

The nature of series [3]: Pharmacokinetic experiment in mouse. As to conditions: plasma.
Where [4] appears, read: 72 h, MV4-11, 3 days, read-out: MTS 3 D.
Where [5] appears, read: 240 h, MV4-11, 10 days, read-out: MTS 10 D.

What is called AUC(0-inf) is the area under the concentration-time curve extrapolated to infinity. By AUC(0-t) is commonly meant the area under the concentration-time curve up to a stated or last time point. Read a low AUC(0-t) as low exposure. Usually MRT inf stands for a mean duration of stay, worked out from the concentration-time curve. As usually defined, the Vd is the apparent volume that relates the amount in the body to the concentration in plasma or blood. Read a high Vd as wide distribution into tissue. Usually clearance stands for the rate of elimination divided by the concentration. Lower therefore signals a low capacity for elimination. Usually Cmax stands for the maximum level reached in the sampled fluid or tissue. A word on the Tmax: it is the time at which the peak concentration occurs. One may read the bioavailability as the share of a dose that reaches the circulation, judged against a reference dose that is usually intravenous. What is called half-life is how long it takes for the measured level to halve.

Structures are written as SMILES. Several values for one entry are separate records, joined by “and”; a condition that tells them apart may be missing. Equal values may be shown once. Read-outs that look alike come from different tables or passages of the source. Bounds are passed on as bounds.

For the molecule `O=C(OCC1CCNCC1)N1CCC(F)(CN[C@@H]2C[C@H]2c2ccccc2)CC1` (relative stereo) [Example A43, Piperidin-4-ylmethyl 4-fluoro-4-(((trans-2-phenylcyclopropyl)amino)methyl)piperidine-1-carboxylate], in series [1] (setting [4]), the IC50 is > 20 µM. In series [2] (5 mg/kg qd p.o.), the “Tumor inhibition rate (%)” value came out at 63.21%; the “Tumor weight (g) mean ± SD” value is recorded as 0.39 ± 0.31 g; the “Tumor weight (g), individual animals 1-5” value is 0.68 g and 0.65 g and 0.59 g and 0.02 g and 0.01 g. In series [3] (iv, 10 mg/kg), this molecule showed an AUC(0-inf) of 890 ng·h/mL, an area under the curve AUC(0-t) of 878 ng·h/mL, an MRT inf of 1.24 h and a Vd of 14 L/kg. Besides, the clearance in series [3] (iv, 10 mg/kg) worked out at 187 mL/min/kg. Besides, in series [3] (po), the AUC(0-inf) stood at 1230 ng·h/mL, the AUC(0-t) was found to be 1230 ng·h/mL, the Cmax came to 867 ng/mL and the MRT inf came to 1.54 h. Further, in series [3] (po), the Tmax amounted to 0.25 h and the bioavailability was 70%.
For the molecule `O=C(OCC1CCN(Cc2ccccc2)CC1)N1CCC(F)(CN[C@@H]2C[C@H]2c2ccccc2)CC1` (relative stereo) [Example A90, (1-Benzylpiperidin-4-yl)methyl 4-fluoro-4-(((trans-2-phenylcyclopropyl)amino)methyl)piperidine-1-carboxylate], the IC50 in series [1] (setting [4]) was > 20 µM. The IC50 in series [1] (setting [5]) stood at 0.03 ± 0.006 µM. Moreover, in series [3] (iv, 10 mg/kg), the AUC(0-inf) was 2760 ng·h/mL, the AUC(0-t) worked out at 2740 ng·h/mL, the MRT inf turned out to be 4 h and the Vd is 14.7 L/kg. In series [3] (iv, 10 mg/kg), this molecule gave a clearance of 60.4 mL/min/kg and a half-life of 3.99 h. Also, in series [3] (po), the AUC(0-inf) stood at 5480 ng·h/mL, the AUC(0-t) stood at 5220 ng·h/mL, the Cmax amounted to 3480 ng/mL and the MRT inf amounted to 2.52 h. Further, in series [3] (po), the Tmax came to 0.167 h, the bioavailability was 95.3% and the half-life is 1.93 h.
For the molecule `O=C(OCC1CCNCC1)N1CCC(F)(CN[C@@H]2C[C@H]2c2ccccc2)CC1` [(1R,2S)-A43], the IC50 in series [1] (setting [4]) was > 20 µM. Also, in series [2] (10 mg/kg qd p.o.), the “Tumor inhibition rate (%)” value was found to be 85.66%; the “Tumor weight (g) mean ± SD” value was 0.15 ± 0.13 g; the “Tumor weight (g), individual animals 1-5” value was 0.09 g and 0.37 g and 0.23 g and 0.04 g and 0.03 g. In addition, in series [3] (iv, 10 mg/kg), the AUC(0-inf) came out at 1710 ng·h/mL, the AUC(0-t) was 1680 ng·h/mL, the MRT inf turned out to be 3.18 h and the Vd came out at 18.6 L/kg. Also, the clearance in series [3] (iv, 10 mg/kg) was 97.4 mL/min/kg. In series [3] (po), the AUC(0-inf) came to 2570 ng·h/mL, the AUC(0-t) was 2500 ng·h/mL, the Cmax was found to be 1260 ng/mL and the MRT inf was determined as 3.65 h. In addition, in series [3] (po), the Tmax turned out to be 0.25 h and the bioavailability came out at 74.4%.
`O=C(OCC1CCN(Cc2ccccc2)CC1)N1CCC(F)(CN[C@@H]2C[C@H]2c2ccccc2)CC1` [(1R,2S)-A90]: in series [2] (10 mg/kg qd p.o.), the “Tumor inhibition rate (%)” value worked out at 85.47%; the “Tumor weight (g) mean ± SD” value worked out at 0.15 ± 0.14 g; the “Tumor weight (g), individual animals 1-5” value was 0.27 g and 0.01 g and 0.37 g and 0.08 g and 0.04 g. In series [3] (iv, 10 mg/kg), this molecule came in with an AUC(0-inf) of 4840 ng·h/mL, an AUC(0-t) of 4830 ng·h/mL, an MRT inf of 2.93 h and a Vd of 6.05 L/kg. For the same molecule, in series [3] (iv, 10 mg/kg), the clearance came to 34.4 mL/min/kg and the half-life is 3.23 h. In series [3] (po), this molecule had an AUC(0-inf) of 7430 ng·h/mL, an AUC(0-t) of 7220 ng·h/mL, a Cmax of 2950 ng/mL and an MRT inf of 5.46 h. For the same molecule, in series [3] (po), the Tmax is 0.25 h, the bioavailability worked out at 74.8% and the half-life is 5.15 h.
For the molecule `O=C(OCc1ccccc1)N1CCC(F)(CNC2CC2c2ccccc2)CC1` (stereo not drawn) [Example A1, Benzyl 4-fluoro-4-((trans-2-phenylcyclopropyl)amino)methyl)piperidine-1-carboxylate], the IC50 in series [1] (setting [4]) is > 20 µM. Besides, the IC50 in series [1] (setting [5]) came out at 0.037 ± 0.012 µM. Further, in series [2] (50 mg/kg qd p.o.), the “Tumor inhibition rate (%)” value is given as 53.70%; the “Tumor weight (g) mean ± SD” value came to 0.53 ± 0.68 g; the “Tumor weight (g), individual animals 1-5” value was 0.05 g and 1.82 g and 0.07 g and 0.61 g and 0.11 g. Besides, in series [3] (iv, 10 mg/kg), the AUC(0-inf) amounted to 14700 ng·h/mL, the AUC(0-t) was found to be 14600 ng·h/mL, the Cmax amounted to 16700 ng/mL and the MRT inf came to 3.77 h. In addition, in series [3] (iv, 10 mg/kg), the Tmax was found to be 0.083 h, the Vd is 2.56 L/kg, the clearance amounted to 11.3 mL/min/kg and the half-life is 3.39 h. Moreover, in series [3] (po), the AUC(0-inf) is 12900 ng·h/mL, the AUC(0-t) amounted to 11400 ng·h/mL, the peak level (Cmax) was 7200 ng/mL and the MRT inf is 10.2 h. Moreover, in series [3] (po), the time to peak (Tmax) was found to be 0.083 h, the bioavailability amounted to 43.7% and the half-life was 9.1 h.
For the molecule `COc1ccc(-c2ccc(C3CC3NCC3(F)CCN(C(=O)OCC4CCNCC4)CC3)cn2)cc1` (centres unmarked) [Example A112, Piperidin-4-ylmethyl 4-fluoro-4-(((2-(6-(4-methoxyphenyl)pyridin-3-yl)cyclopropyl)amino)methyl)piperidine-1-carboxylate], the IC50 in series [1] (setting [4]) and in series [1] (setting [5]) was > 20 µM in each case.
With `O=C(OCC1CCNCC1)N1CCC(F)(CNC2CC2c2ccc(C3CC3)s2)CC1` (centres unmarked) [Example A113, Piperidin-4-ylmethyl 4-(((2-(5-cyclopropylthien-2-yl)cyclopropyl)amino)methyl)-4-fluoropiperidine-1-carboxylate], the IC50 in series [1] (setting [4]) and in series [1] (setting [5]) was > 20 µM throughout.
For `N#Cc1ccc(C#Cc2ccc(C3CC3NCC3(F)CCN(C(=O)OCC4CCNCC4)CC3)s2)cc1` (centres unmarked) [Example A114, Piperidin-4-ylmethyl 4-(((2-(5-((4-cyanophenyl)ethynyl)thiophen-2-yl)cyclopropyl)amino)methyl)-4-fluoropiperidine-1-carboxylate], the IC50 in series [1] (setting [4]) amounted to 15.3 ± 0.78 µM; in series [1] (setting [5]), 7.84 ± 0.35 µM.
Turning to `O=C(OCC1CCNCC1)N1CCC(F)(CNC2CC2c2ccc(-c3ccccc3)nc2)CC1` (centres unmarked) [Example A115, Piperidin-4-ylmethyl 4-fluoro-4-(((2-(6-phenylpyridin-3-yl)cyclopropyl)amino)methyl)piperidine-1-carboxylate], the values for the IC50 in series [1] (setting [4]) and in series [1] (setting [5]) were > 20 µM and 11 ± 0.978 µM, respectively.
For the molecule `CCc1ccc(Oc2ccc(C3CC3NCC3(F)CCN(C(=O)OCC4CCNCC4)CC3)cn2)cc1` (centres unmarked) [Example A116], the IC50 in series [1] (setting [4]) turned out to be 19.4 ± 7.38 µM; in series [1] (setting [5]), 7.41 ± 2.53 µM.
Take `O=C(OCC1CCNCC1)N1CCC(F)(CNC2CC2c2ccc(-c3cccc(C(F)(F)F)c3)nc2)CC1` (centres unmarked) [Example A117]: the IC50 in series [1] (setting [4]) turned out to be 15.4 ± 3.71 µM; in series [1] (setting [5]), 6.51 ± 2.02 µM.
`O=C(OCC1CCNCC1)N1CCC(F)(CNC2CC2c2ccc(-c3ccc(F)cc3)nc2)CC1` (centres unmarked) [Example A118, Piperidin-4-ylmethyl 4-fluoro-4-(((2-(6-(4-fluorophenyl)pyridin-3-yl)cyclopropyl)amino)methyl)piperidine-1-carbox ylate]: the values for the IC50 in series [1] (setting [4]) and in series [1] (setting [5]) were > 20 µM and 10.2 ± 2.77 µM, respectively.
